Measured values as given in PubChem BioAssay AID2060511 (Molecular Pharmacology Branch, DTP, NCI, 2025).

System: 422866-222-R5-J1-PDC spheroids with HUVEC/MSC, viability
Assay: Anticancer human tumor 422866-222-R5-J1-PDC patient-derived pancreatic adenocarcinoma cell line growth inhibition [GQUAD]
Conditions: for IC50: curve of first compound; for viability, T/C: stronger effect = lower value
Outline: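 Viability of tumor cells grown as complex spheroids with endothelial and stromal cells, exposed to drug combinations. Top concentration at or near clinical Cmax (else 10 microM), diluted in half-log increments.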

[1] = second compound 0.0316 µM, first compound 0.0316 µM
[2] = second compound 0.0316 µM, first compound 0.1 µM
[3] = second compound 0.0316 µM, first compound 0.316 µM
[4] = second compound 0.0316 µM, first compound 1 µM
[5] = second compound 0.0316 µM, first compound 3.16 µM
[6] = second compound 0.0316 µM, first compound 10 µM
[7] = second compound 0.1 µM, first compound 0.0316 µM
[8] = second compound 0.1 µM, first compound 0.1 µM
[9] = second compound 0.1 µM, first compound 0.316 µM
[10] = second compound 0.1 µM, first compound 1 µM
[11] = second compound 0.1 µM, first compound 3.16 µM
[12] = second compound 0.1 µM, first compound 10 µM
[13] = second compound 0.316 µM, first compound 0.0316 µM
[14] = second compound 0.316 µM, first compound 0.1 µM
[15] = second compound 0.316 µM, first compound 0.316 µM
[16] = second compound 0.316 µM, first compound 1 µM
[17] = second compound 0.316 µM, first compound 3.16 µM
[18] = second compound 0.316 µM, first compound 10 µM
[19] = second compound 1 µM, first compound 0.0316 µM
[20] = second compound 1 µM, first compound 0.1 µM
[21] = second compound 1 µM, first compound 0.316 µM
[22] = second compound 1 µM, first compound 1 µM
[23] = second compound 1 µM, first compound 3.16 µM
[24] = second compound 1 µM, first compound 10 µM
[25] = second compound 3.16 µM, first compound 0.0316 µM
[26] = second compound 3.16 µM, first compound 0.1 µM
[27] = second compound 3.16 µM, first compound 0.316 µM
[28] = second compound 3.16 µM, first compound 1 µM
[29] = second compound 3.16 µM, first compound 3.16 µM
[30] = second compound 3.16 µM, first compound 10 µM
[31] = second compound 10 µM, first compound 0.0316 µM
[32] = second compound 10 µM, first compound 0.1 µM
[33] = second compound 10 µM, first compound 0.316 µM
[34] = second compound 10 µM, first compound 1 µM
[35] = second compound 10 µM, first compound 3.16 µM
[36] = second compound 10 µM, first compound 10 µM
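Further: spheroids exposed to compounds for seven days before reading.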
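Wherever viability, T/C is given: percent viability relative to DMSO vehicle control taken as 100%.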

## CC1COCCN1c1cc(-c2ccnn2C)c2ccnc(-c3ccn[nH]3)c2n1 (stereo unspecified) + Cc1cnc(CNC(=O)c2c(=O)c3ccc(N4CCCN(C)CC4)nc3n3c2sc2ccccc23)cn1
Second compound 0.0316 µM
  IC50: > 10 µM
Second compound 0.1 µM
  IC50: 0.0316 µM
Second compound 0.316 µM
  IC50: > 10 µM
Second compound 1 µM
  IC50: > 10 µM
Second compound 3.16 µM
  IC50: > 10 µM
Second compound 10 µM
  IC50: > 10 µM
[1]
  viability, T/C: 75.9%
[2]
  viability, T/C: 61.6%
[3]
  viability, T/C: 47.4%
[4]
  viability, T/C: 38%
[5]
  viability, T/C: 55%
[6]
  viability, T/C: 81.7%
[7]
  viability, T/C: 64.5%
[8]
  viability, T/C: 53.1%
[9]
  viability, T/C: 48.5%
[10]
  viability, T/C: 41.6%
[11]
  viability, T/C: 46.5%
[12]
  viability, T/C: 89.7%
[13]
  viability, T/C: 65.3%
[14]
  viability, T/C: 60.9%
[15]
  viability, T/C: 50.7%
[16]
  viability, T/C: 40.5%
[17]
  viability, T/C: 50.9%
[18]
  viability, T/C: 69.9%
[19]
  viability, T/C: 71.4%
[20]
  viability, T/C: 68.7%
[21]
  viability, T/C: 53.2%
[22]
  viability, T/C: 53.1%
[23]
  viability, T/C: 47.5%
[24]
  viability, T/C: 67.7%
[25]
  viability, T/C: 70.2%
[26]
  viability, T/C: 74.8%
[27]
  viability, T/C: 61%
[28]
  viability, T/C: 59%
[29]
  viability, T/C: 46.9%
[30]
  viability, T/C: 61.8%
[31]
  viability, T/C: 66.3%
[32]
  viability, T/C: 66.9%
[33]
  viability, T/C: 56%
[34]
  viability, T/C: 51.6%
[35]
  viability, T/C: 57.6%
[36]
  viability, T/C: 53.1%

## CC1COCCN1c1cc(C2(O)CC3CCC(C2)O3)c2cnn(-c3ccn[nH]3)c2n1 (stereo unspecified) + Cc1cnc(CNC(=O)c2c(=O)c3ccc(N4CCCN(C)CC4)nc3n3c2sc2ccccc23)cn1
Second compound 0.0316 µM
  IC50: > 10 µM
Second compound 0.1 µM
  IC50: 0.0316 µM
Second compound 0.316 µM
  IC50: > 10 µM
Second compound 1 µM
  IC50: > 10 µM
Second compound 3.16 µM
  IC50: 0.0316 µM
Second compound 10 µM
  IC50: 0.0316 µM
[1]
  viability, T/C: 64.2%
[2]
  viability, T/C: 43.7%
[3]
  viability, T/C: 43.1%
[4]
  viability, T/C: 61.8%
[5]
  viability, T/C: 80.2%
[6]
  viability, T/C: 82.9%
[7]
  viability, T/C: 67.7%
[8]
  viability, T/C: 51%
[9]
  viability, T/C: 35.3%
[10]
  viability, T/C: 49.2%
[11]
  viability, T/C: 86.7%
[12]
  viability, T/C: 90.4%
[13]
  viability, T/C: 74.2%
[14]
  viability, T/C: 61.2%
[15]
  viability, T/C: 47.8%
[16]
  viability, T/C: 47.4%
[17]
  viability, T/C: 85.5%
[18]
  viability, T/C: 81.9%
[19]
  viability, T/C: 70.1%
[20]
  viability, T/C: 63.9%
[21]
  viability, T/C: 44.1%
[22]
  viability, T/C: 53.6%
[23]
  viability, T/C: 74.9%
[24]
  viability, T/C: 85.4%
[25]
  viability, T/C: 59.7%
[26]
  viability, T/C: 63.5%
[27]
  viability, T/C: 42.2%
[28]
  viability, T/C: 46.2%
[29]
  viability, T/C: 75.2%
[30]
  viability, T/C: 76%
[31]
  viability, T/C: 61.4%
[32]
  viability, T/C: 62.4%
[33]
  viability, T/C: 45.2%
[34]
  viability, T/C: 36.8%
[35]
  viability, T/C: 68.6%
[36]
  viability, T/C: 78.5%

## CC1COCCN1c1cc(C2(S(C)(=N)=O)CC2)nc(-c2ccnc3[nH]ccc23)n1 (stereo unspecified) + Cc1cnc(CNC(=O)c2c(=O)c3ccc(N4CCCN(C)CC4)nc3n3c2sc2ccccc23)cn1
Second compound 0.0316 µM
  IC50: > 10 µM
Second compound 0.1 µM
  IC50: > 10 µM
Second compound 0.316 µM
  IC50: > 10 µM
Second compound 1 µM
  IC50: > 10 µM
Second compound 3.16 µM
  IC50: > 10 µM
Second compound 10 µM
  IC50: > 10 µM
[1]
  viability, T/C: 102%
[2]
  viability, T/C: 103%
[3]
  viability, T/C: 95.1%
[4]
  viability, T/C: 80.8%
[5]
  viability, T/C: 71%
[6]
  viability, T/C: 50.7%
[7]
  viability, T/C: 104%
[8]
  viability, T/C: 102%
[9]
  viability, T/C: 96.2%
[10]
  viability, T/C: 80%
[11]
  viability, T/C: 67.7%
[12]
  viability, T/C: 53.6%
[13]
  viability, T/C: 91.7%
[14]
  viability, T/C: 98.5%
[15]
  viability, T/C: 99.5%
[16]
  viability, T/C: 96.2%
[17]
  viability, T/C: 77.4%
[18]
  viability, T/C: 61.2%
[19]
  viability, T/C: 83.2%
[20]
  viability, T/C: 92.8%
[21]
  viability, T/C: 103%
[22]
  viability, T/C: 86.3%
[23]
  viability, T/C: 72.8%
[24]
  viability, T/C: 77.6%
[25]
  viability, T/C: 93.9%
[26]
  viability, T/C: 96.6%
[27]
  viability, T/C: 90.2%
[28]
  viability, T/C: 94.7%
[29]
  viability, T/C: 78.1%
[30]
  viability, T/C: 71.6%
[31]
  viability, T/C: 89.7%
[32]
  viability, T/C: 92.3%
[33]
  viability, T/C: 93.1%
[34]
  viability, T/C: 87.7%
[35]
  viability, T/C: 82%
[36]
  viability, T/C: 64.7%
